Values quoted from earlier work, collected in patent US11439626B2 (Icahn School of Medicine at Mount Sinai, priority 2019, dated 2022).
Read-outs that look alike come from different tables or passages of the source.

What was measured:
[1] = system: patients with traumatic spinal cord injuries; conditions: cervical injuries, 90 days post-injury
[2] = not given; remark: listed apart in the source
[3] = for % Abs: 100 mg dose

dose recovered in the urine (human, in vivo): 90%
dose recovered in the urine as glucuronides (human, in vivo): 85%
dose recovered in the urine as unchanged riluzole (human, in vivo): 2%
fecal excretion of administered dose (human, in vivo): 5%
accumulation (repeated twice daily dosing): approximately 2 fold
trough concentrations ([2]; 50 mg twice daily, non-smoking males, predicted profile (Bruno et al.)): ~0.03 µg/mL
Proportional error ([2]; error model parameter (SIGMA)): 0.0697
V/F Inter-occasion variability ([2]; variability parameter (ETA)): 0.111
Cmin ([3]; 100 mg BID treatment arm, reported by Le Liboux et al.): ~40 ng/mL
% Abs ([3]; Fasted (observed)): 100%
% Abs ([3]; Fed (observed)): 80%
SMILES: Nc1nc2ccc(OC(F)(F)F)cc2s1 [riluzole, 2-Amino-6-(trifluoromethoxy)benzothiazole]
motor outcomes [1]: improved motor outcomes
